According to ChEMBL document CHEMBL4270491, “Novel 2,4- thiazolidinediones: Synthesis, in vitro cytotoxic activity, and mechanistic investigation” (Eur J Med Chem, 2017):
The source made the active and inactive calls. The calls are words filed in the database; no cut-off is given here.

How the values were obtained:
MDA-MB-231 [1] = assay: Cytotoxic activity in human MDA-MB-231 cells assessed as reduction in cell viability incubated for 3 days by MTT assay; type: functional, cell-based; settings: MDA-MB-231, 72 h
HT-1080 [2] = assay: Induction of cell cycle arrest in human HT1080 cells assessed as accumulation at G0/G1 phase at 50 uM incubated for 48 hrs by propidium iodide staining based flow cytometry; type: functional
PC-3 [3] = assay: Cytotoxic activity in human PC3 cells assessed as reduction in cell viability incubated for 3 days by MTT assay; type: functional, cell-based; settings: PC-3, 72 h
HT-1080 [4] = assay: Induction of apoptosis in human HT1080 cells assessed as induction of DNA fragmentation at 50 uM incubated for 48 hrs by flow cytometry; type: functional, cell-based
HT-1080 [5] = assay: Cytotoxic activity in human HT1080 cells assessed as reduction in cell viability incubated for 3 days by MTT assay; type: functional, cell-based; settings: HT-1080, 72 h
HT-1080 [6] = assay: Induction of cell cycle arrest in human HT1080 cells assessed as accumulation at G2/M phase at 50 uM incubated for 48 hrs by propidium iodide staining based flow cytometry; type: functional
[7] = target: T1, Mitogen-activated protein kinase; ERK1/ERK2 (Homo sapiens) (UniProt P27361+P28482); assay: Induction of ERK1/2 Thr202/Tyr204 phosphorylation in human PC3 cells at 50 uM incubated for 24 hrs by Western blot analysis; type: cell-based
HT-1080 [8] = assay: Induction of cell cycle arrest in human HT1080 cells assessed as accumulation at G0/G1 phase at 20 uM incubated for 48 hrs by propidium iodide staining based flow cytometry; type: functional
PC-3 [9] = assay: Increase in p21(WAF1) protein expression in human PC3 cells at 50 uM incubated for 24 hrs by Western blot analysis; type: functional, cell-based
HT-1080 [10] = assay: Increase in p21(WAF1) protein expression in human HT1080 cells at 50 uM incubated for 24 hrs by Western blot analysis; type: functional, cell-based
MDA-MB-231 [11] = assay: Increase in p21(WAF1) protein expression in human MDA-MB-231 cells at 50 uM incubated for 24 hrs by Western blot analysis; type: functional, cell-based
HT-1080 [12] = assay: Induction of cell cycle arrest in human HT1080 cells assessed as accumulation at G2/M phase at 20 uM incubated for 48 hrs by propidium iodide staining based flow cytometry; type: functional
HT-1080 [13] = assay: Induction of apoptosis in human HT1080 cells assessed as induction of caspase-3 cleavage at 50 uM incubated for 24 hrs by Western blot analysis; type: functional, cell-based
[14] = target: T1, Mitogen-activated protein kinase; ERK1/ERK2 (Homo sapiens); assay: Inhibition of ERK1/2 Thr202/Tyr204 phosphorylation in human MDA-MB-231 cells at 50 uM incubated for 24 hrs by Western blot analysis; type: cell-based

T1 sequence (P27361 whole entry, looked up): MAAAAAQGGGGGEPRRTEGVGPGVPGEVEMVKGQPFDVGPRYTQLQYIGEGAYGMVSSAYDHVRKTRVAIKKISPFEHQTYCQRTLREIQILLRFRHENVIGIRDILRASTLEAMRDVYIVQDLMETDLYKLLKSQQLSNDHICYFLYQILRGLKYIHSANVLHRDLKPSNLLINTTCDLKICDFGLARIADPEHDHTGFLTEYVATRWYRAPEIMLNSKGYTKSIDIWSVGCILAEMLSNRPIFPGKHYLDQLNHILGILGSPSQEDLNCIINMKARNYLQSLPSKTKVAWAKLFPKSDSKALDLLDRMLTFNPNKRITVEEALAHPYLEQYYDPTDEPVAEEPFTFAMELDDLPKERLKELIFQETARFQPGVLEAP
T1 sequence (P28482 whole entry, looked up): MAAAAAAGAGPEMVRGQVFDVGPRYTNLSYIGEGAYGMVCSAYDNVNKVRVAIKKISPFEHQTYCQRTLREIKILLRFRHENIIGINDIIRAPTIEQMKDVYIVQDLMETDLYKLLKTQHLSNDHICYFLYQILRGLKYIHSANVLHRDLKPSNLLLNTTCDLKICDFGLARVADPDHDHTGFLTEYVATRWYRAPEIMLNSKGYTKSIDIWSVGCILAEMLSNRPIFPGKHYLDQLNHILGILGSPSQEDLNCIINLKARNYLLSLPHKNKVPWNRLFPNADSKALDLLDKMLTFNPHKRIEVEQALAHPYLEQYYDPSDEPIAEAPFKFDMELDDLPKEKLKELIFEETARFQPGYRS

Row | Structure (SMILES) | IC50 (MDA-MB-231 [1]) [µM] | Activity (HT-1080 [2]) | IC50 (PC-3 [3]) [µM] | Activity (HT-1080 [4]) | IC50 (HT-1080 [5]) [µM] | Activity (HT-1080 [6]) | Activity [7] | Activity (HT-1080 [8]) | Activity (PC-3 [9]) | Activity (HT-1080 [10]) | Activity (MDA-MB-231 [11]) | Activity (HT-1080 [12]) | Activity (HT-1080 [13]) | inhibition [14]
1 | COc1cc(/C=C2/SC(=O)NC2=O)ccc1OCc1nc2ccccc2c(=O)n1-c1cccc(Br)c1 | 62.1 | Active | 66.8 | Active | 41.9 | Active | – | – | – | – | – | – | – | –
2 | COc1cccc(-n2c(COc3ccc(/C=C4/SC(=O)NC4=O)cc3)nc3ccccc3c2=O)c1 | 59.6 | Active | 66.9 | Active | 45.6 | Active | – | – | – | – | – | – | – | –
3 | O=C1NC(=O)/C(=C\c2ccc(OCc3nc4ccccc4c(=O)n3-c3ccc(C(F)(F)F)cc3)cc2)S1 | 13 | – | 19.1 | Active | 9 | – | Active | Active | Active | inactive | Active | Active | Active | Active
4 | O=C1NC(=O)/C(=C\c2ccc(OCc3nc4ccccc4c(=O)n3-c3ccc(F)cc3)cc2)S1 | 46.2 | Active | 52.1 | Active | 45.3 | Active | – | – | – | – | – | – | – | –
5 | O=C1S/C(=C/c2ccccc2)C(=O)N1Cc1nc2ccccc2c(=O)n1-c1cccc(Br)c1 | 23.4 | – | 37 | – | 24.6 | – | – | – | – | – | – | – | – | –
6 | COc1cc(/C=C2/SC(=O)NC2=O)ccc1OCc1nc2ccccc2c(=O)n1-c1ccccc1 | 84.2 | Active | 64.2 | Active | 64.7 | Active | – | – | – | – | – | – | – | –
7 | COc1cc(/C=C2/SC(=O)NC2=O)ccc1OCc1nc2ccccc2c(=O)n1-c1ccc(C(F)(F)F)cc1 | 41 | Active | 50.1 | Active | 38.8 | Active | – | – | – | – | – | – | Active | –
8 | COc1cccc(-n2c(COc3ccc(/C=C4/SC(=O)NC4=O)cc3OC)nc3ccccc3c2=O)c1 | 87.2 | Active | 64.1 | Active | 47.9 | Active | – | – | – | – | – | – | – | –
9 | CCc1ccc(CCOc2ccc(CC3SC(=O)NC3=O)cc2)nc1 (stereo not given) [PIOGLITAZONE] | > 100 | – | > 100 | inactive | > 100 | – | – | – | Active | inactive | Active | – | – | –
10 | Cc1ccc(-n2c(COc3ccc(/C=C4/SC(=O)NC4=O)cc3)nc3ccccc3c2=O)cc1 | 72.2 | Active | 82.5 | Active | 45.3 | Active | – | – | – | – | – | – | – | –
11 | O=C1NC(=O)/C(=C\c2ccc(OCc3nc4ccccc4c(=O)n3-c3ccc(Cl)cc3)cc2)S1 | 4.5 | – | 8.7 | Active | 3.9 | – | Active | Active | Active | inactive | Active | Active | Active | Active
12 | CN(C)c1ccc(/C=C2/SC(=O)N(Cc3nc4ccccc4c(=O)n3-c3ccccc3)C2=O)cc1 | 5.9 | – | 19.4 | Active | 9 | – | Active | Active | – | – | – | Active | Active | Active
13 | COc1ccc(/C=C2/SC(=O)N(Cc3nc4ccccc4c(=O)n3-c3ccccc3)C2=O)cc1 | 32.5 | Active | 79.6 | Active | 47.8 | Active | – | – | – | – | – | – | – | –
14 | Cc1cccc(-n2c(COc3ccc(/C=C4/SC(=O)NC4=O)cc3)nc3ccccc3c2=O)c1 | > 100 | – | > 100 | – | 54 | – | – | – | – | – | – | – | – | –
15 | COc1cc(-n2c(CN3C(=O)S/C(=C/c4ccc(N(C)C)cc4)C3=O)nc3ccccc3c2=O)cc(OC)c1OC | > 100 | Active | > 100 | inactive | 98.1 | Active | – | – | – | – | – | – | Active | –
16 | COc1cc(/C=C2/SC(=O)NC2=O)ccc1OCc1nc2ccccc2c(=O)n1-c1cccc(Cl)c1 | 72.5 | – | 62.1 | – | 67.6 | – | – | – | – | – | – | – | – | –
17 | COc1cccc2c1C(=O)c1c(O)c3c(c(O)c1C2=O)C[C@@](O)(C(=O)CO)C[C@@H]3O[C@H]1C[C@H](N)[C@H](O)[C@H](C)O1 [DOXORUBICIN] | 0.36 | – | 0.3 | – | 0.017 | – | – | – | – | – | – | – | – | –
18 | O=C1NC(=O)/C(=C\c2ccc(OCc3nc4ccccc4c(=O)n3-c3ccccc3)cc2)S1 | 50.7 | Active | 71 | Active | 34.9 | Active | – | – | – | – | – | – | – | –
19 | O=C1NC(=O)/C(=C\c2ccc(OCc3nc4ccccc4c(=O)n3-c3ccc(Br)cc3)cc2)S1 | 45.4 | Active | 60.7 | Active | 46.1 | Active | – | – | – | – | – | – | – | –
20 | O=C1NC(=O)/C(=C\c2ccc(OCc3nc4ccccc4c(=O)n3-c3cccc(Br)c3)cc2)S1 | 49.8 | Active | 52.9 | Active | 28.4 | Active | – | – | – | – | – | – | – | –
21 | O=C1NC(=O)/C(=C\c2ccc(OCc3nc4ccccc4c(=O)n3-c3cccc(Cl)c3)cc2)S1 | 58.5 | Active | 70.2 | Active | 44.8 | Active | – | – | – | – | – | – | – | –
22 | COc1cc(/C=C2/SC(=O)NC2=O)ccc1OCc1nc2ccccc2c(=O)n1-c1ccc(Br)cc1 | 51.3 | Active | 51.1 | Active | 18.9 | Active | – | – | – | – | – | – | Active | –
23 | COc1ccc(-n2c(CN3C(=O)S/C(=C/c4ccc(N(C)C)cc4)C3=O)nc3ccccc3c2=O)cc1OC | > 100 | Active | > 100 | Active | 86.5 | Active | – | – | – | – | – | – | Active | –
24 | Cc1ccc(/C=C2/SC(=O)N(Cc3nc4ccccc4c(=O)n3-c3ccccc3)C2=O)cc1 | 39.7 | – | 82.4 | – | 68.4 | – | – | – | – | – | – | – | – | –
25 | O=C1S/C(=C/c2ccc(Cl)cc2Cl)C(=O)N1Cc1nc2ccccc2c(=O)n1-c1ccccc1 | 6.4 | – | 58.1 | inactive | 12.2 | – | – | Active | – | – | – | Active | – | –
